± gives the standard deviation of the averaged measurements.
Key:
Assay in all cases: level (log10 ratio to DMSO vehicle control); higher = higher biomarker level / cell amount than vehicle control
[1] = compound: OCCCC(F)(F)C(F)(F)C(F)(F)C(F)(F)C(F)(F)C(F)(F)C(F)(F)C(F)(F)F [3-(Perfluorooctyl)propanol]; conditions: 6700 nM; in DMSO
Experimental: (§1)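 BioMAP Diversity Plus panel of 12 human primary cell co-culture systems (3C, 4H, LPS, SAg, BT, BF4T, BE3C, CASM3C, HDF3CGF, KF3CT, MyoF, Mphg). Compounds were added 1 h before stimulation and left for 24 h (MyoF 48 h; BT 72 h for soluble read-outs or 6 d for IgG). Biomarkers were read by ELISA, cytotoxicity by SRB, PBMC viability and proliferation by Alamar Blue. Each well value was divided by the mean of 8 DMSO control wells on the same plate and log10 transformed; duplicate blinded samples were tested at 4 concentrations.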

[2] = compound: FC(F)(F)C(F)(F)C(F)(F)C(F)(F)CCI [1H,1H,2H,2H-Perfluorohexyl iodide]; conditions: in DMSO
Experimental: as §1

[3] = compound: O=S(=O)(O)CCC(F)(F)C(F)(F)C(F)(F)C(F)(F)F [4:2 Fluorotelomer sulfonic acid]; conditions: in DMSO
Experimental: as §1

[4] = compound: O=C(CC(=O)C(F)(F)C(F)(F)C(F)(F)F)c1cccs1 [(Perfluorobutyryl)-2-thenoylmethane]; conditions: in DMSO
Experimental: as §1

Methotrexate = compound: CN(Cc1cnc2nc(N)nc(N)c2n1)c1ccc(C(=O)N[C@@H](CCC(=O)O)C(=O)O)cc1 [Methotrexate]; conditions: in DMSO
Experimental: as §1

[5] = compound: FC(F)(F)COC(OCC(F)(F)F)OCC(F)(F)F [tris(Trifluoroethoxy)methane]; conditions: in DMSO
Experimental: as §1

[6] = compound: OCC(F)(F)C(F)(F)C(F)(F)C(F)(F)C(F)(F)C(F)(F)F [6:1 Fluorotelomer alcohol]; conditions: in DMSO
Experimental: as §1

Row | Test System | level (log10) [1] | level (log10) ([2]; 6700 nM) | level (log10) ([2]; 20000 nM) | level (log10) ([2]; 60000 nM) | level (log10) ([3]; 6700 nM) | level (log10) ([3]; 20000 nM) | level (log10) ([3]; 60000 nM) | level (log10) ([4]; 6700 nM) | level (log10) ([4]; 20000 nM) | level (log10) (Methotrexate; 1500 nM) | level (log10) (Methotrexate; 4400 nM) | level (log10) (Methotrexate; 13000 nM) | level (log10) (Methotrexate; 40000 nM) | level (log10) ([5]; 6700 nM) | level (log10) ([5]; 20000 nM) | level (log10) ([5]; 60000 nM) | level (log10) ([6]; 6700 nM) | level (log10) ([6]; 20000 nM) | level (log10) ([6]; 60000 nM)
1 | BE3C:CD87/uPAR | 0.02 ± 0.047 | -0.0105 ± 0.019 | -0.011 | 0.0285 ± 0.011 | 0.002 ± 0.02 | -0.004 ± 0.021 | -0.007 ± 0.0071 | 0.013 ± 0.0028 | -0.007 ± 0.0014 | 0.0225 ± 0.005 | -0.0145 ± 0.011 | 0 ± 0.016 | 0.0145 ± 0.015 | -0.01 ± 0.0028 | 0.0475 ± 0.047 | -0.0075 ± 0.023 | 0.007 ± 0.017 | -0.0075 ± 0.0078 | 0.0105 ± 0.035
2 | BE3C:EGFR | -0.018 ± 0.0071 | 0.011 ± 0.047 | -0.0005 ± 0.046 | -0.0275 ± 0.063 | 0.0115 ± 0.00071 | -0.009 ± 0.0014 | 0.002 ± 0.0085 | -0.0725 ± 0.029 | -0.094 ± 0.041 | 0.023 ± 0.028 | 0.002 ± 0.013 | 0.0085 ± 0.0092 | 0.0155 ± 0.037 | 0.022 ± 0.041 | 0.0095 ± 0.033 | 0.005 ± 0.021 | 0.0115 ± 0.0064 | 0.0035 ± 0.011 | -0.0585 ± 0.081
3 | BF4T:MMP-9 | 0.0155 ± 0.057 | 0.0085 ± 0.022 | 0.01 ± 0.047 | 0.02 ± 0.052 | -0.023 ± 0.023 | -0.02 ± 0.0028 | 0.0205 ± 0.033 | -0.0225 ± 0.0021 | -0.146 ± 0.039 | 0.0265 ± 0.012 | -0.0075 ± 0.029 | 0.014 ± 0.0099 | 0.016 | 0.015 ± 0.061 | 0.0075 ± 0.049 | 0.0205 ± 0.033 | -0.023 ± 0.016 | -0.004 ± 0.011 | 0.014 ± 0.0085
4 | 3C:SRB | -0.0195 ± 0.018 | 0.0005 ± 0.018 | 0.004 ± 0.013 | -0.006 ± 0.0028 | -0.0135 ± 0.011 | -0.0145 ± 0.0078 | -0.0255 ± 0.025 | -0.0035 ± 0.028 | -0.139 ± 0.021 | 0.0055 ± 0.0035 | 0 ± 0.017 | 0.011 ± 0.028 | -0.0155 ± 0.0021 | -0.02 | -0.0035 ± 0.00071 | -0.006 ± 0.02 | -0.0045 ± 0.0092 | -0.0025 ± 0.012 | -0.21 ± 0.3
5 | BF4T:MMP-1 | 0.022 ± 0.0099 | 0.007 ± 0.024 | 0.0105 ± 0.029 | 0.015 ± 0.051 | -0.002 ± 0.017 | -0.0115 ± 0.005 | 0.0055 ± 0.0092 | -0.02 ± 0.011 | -0.0785 ± 0.0092 | 0.0195 ± 0.015 | 0.0005 ± 0.016 | -0.012 ± 0.03 | 0.0015 ± 0.011 | 0.006 ± 0.02 | -0.007 ± 0.017 | 0.0015 ± 0.00071 | 0.002 ± 0.014 | 0.0025 ± 0.0078 | -0.011 ± 0.0028
6 | 3C:CXCL8/IL-8 | -0.008 ± 0.013 | -0.0135 ± 0.018 | -0.007 ± 0.014 | 0.0495 ± 0.00071 | -0.0175 ± 0.04 | -0.011 ± 0.072 | 0.035 ± 0.1 | -0.112 ± 0.0035 | -0.091 ± 0.014 | 0.035 ± 0.016 | -0.0015 ± 0.059 | 0.0055 ± 0.023 | 0.042 ± 0.093 | -0.007 ± 0.016 | -0.0085 ± 0.005 | 0.003 ± 0.013 | -0.0095 ± 0.013 | 0.0145 ± 0.011 | 0.055 ± 0.057
7 | SAg:CXCL9/MIG | -0.0205 ± 0.0078 | -0.0015 ± 0.005 | -0.006 ± 0.0085 | 0.009 ± 0.0028 | -0.0055 ± 0.013 | -0.0075 ± 0.0064 | 0.0035 ± 0.005 | -0.0075 ± 0.0035 | -0.0245 ± 0.011 | 0.0095 ± 0.0035 | 0 ± 0.035 | 0.006 ± 0.034 | -0.003 ± 0.027 | 0.0015 ± 0.018 | 0.011 ± 0.0042 | 0.014 ± 0.0028 | -0.0025 ± 0.021 | -0.013 ± 0.018 | -0.0055 ± 0.0092
8 | BE3C:CXCL11/I-TAC | -0.003 ± 0.011 | -0.001 ± 0.0014 | 0.0005 ± 0.0035 | 0.005 ± 0.0099 | 0.008 ± 0.0042 | 0.043 ± 0.033 | 0.0485 ± 0.0092 | -0.01 | -0.28 ± 0.011 | 0.017 ± 0.027 | 0.0135 ± 0.029 | 0.0225 ± 0.015 | 0.016 ± 0.031 | 0.0065 ± 0.012 | -0.002 ± 0.0042 | 0.0015 ± 0.0021 | 0.027 ± 0.0057 | 0.011 ± 0.017 | 0.008 ± 0.0099
9 | LPS:CD69 | -0.011 ± 0.016 | 0 ± 0.013 | -0.008 ± 0.0071 | 0.0085 ± 0.011 | -0.0435 ± 0.052 | -0.0565 ± 0.029 | -0.058 ± 0.028 | -0.132 ± 0.0014 | -0.0555 ± 0.07 | -0.0175 ± 0.015 | -0.035 ± 0.033 | -0.0385 ± 0.044 | -0.0175 ± 0.0092 | -0.0085 ± 0.015 | 0.012 ± 0.017 | 0.0295 ± 0.018 | -0.017 ± 0.0042 | -0.0135 ± 0.0064 | -0.0085 ± 0.005
10 | BT:sIL-17F | -0.101 ± 0.015 | -0.0555 ± 0.04 | -0.03 ± 0.021 | -0.0755 ± 0.1 | -0.0025 ± 0.0035 | -0.009 ± 0.13 | 0.077 ± 0.021 | -0.114 ± 0.061 | -0.45 ± 0.048 | -0.039 ± 0.11 | -0.02 ± 0.025 | -0.064 ± 0.088 | -0.179 ± 0.075 | -0.024 ± 0.031 | -0.0565 ± 0.032 | 0.0095 ± 0.084 | 0.0105 ± 0.0035 | -0.0465 ± 0.025 | -0.388 ± 0.029
11 | LPS:CD142/Tissue Factor | -0.126 ± 0.066 | 0.0165 ± 0.0035 | 0.0275 ± 0.018 | 0.055 ± 0.051 | -0.051 ± 0.014 | -0.0105 ± 0.016 | -0.0015 ± 0.016 | -0.004 ± 0.093 | 0.323 ± 0.0028 | -0.0105 ± 0.018 | -0.0155 ± 0.039 | 0.022 ± 0.076 | -0.0035 ± 0.0021 | -0.013 ± 0.011 | -0.02 ± 0.027 | -0.0085 ± 0.06 | -0.0035 ± 0.03 | 0.0215 ± 0.011 | 0.0155 ± 0.016
